These are literature values, as cited in patent US7064136B2, “Compounds” (AstraZeneca AB, priority 2000, dated 2006).

Each structure is given as a SMILES string. Read-outs that look alike come from different tables or passages of the source. Non-standard residues stand in square brackets, D forms with d. Residues, ends and D or L forms follow the SMILES beside them. *: point of attachment. Cyclohexanecarbonyl = O=C(C1CCCCC1)*

In data set [1] the test system is Neurokinin receptor. As to conditions: Elevated plus-maze.
Data set [2] relates to Neurokinin receptor. The conditions noted are these: Light-dark box.
Data set [3] has as its system Neurokinin receptor. As to conditions: Marmoset human intruder; Walsh et al., Psychopharmacology 121:186-191, 1995.
Data set [4] concerns Neurokinin receptor.
Data set [5] concerns Neurokinin receptor. The conditions noted are these: Forced swim test (depression model); anti-depressant (only at 30 mg/kb bid); Vassout et al Neuropeptides 26/S1:38, 1994.
[6] abbreviates: Teixeira et al., Eur J Pharmacol 5;311(1):7-14, 1996.
The mark [7] stands for this setting: Stratton et al., Eur. J. Pharmacol. 250: R11-12, 1993.
Where [8] appears, read: Walsh et al., Psychopharmacology 121:186-191, 1995.

Turning to `CC(=O)NC1(c2ccccc2)CCN(CC[C@H](CN(C)C(=O)c2ccccc2)c2ccc(Cl)c(Cl)c2)CC1` [SR48968], the Outcome result in data set [1] (setting [6]), in data set [2] (setting [7]), in data set [2] (setting [8]) and in data set [3] was “anxiolytic” throughout.

With `CN(Cc1ccccc1)C(=O)[C@H](Cc1ccc2ccccc2c1)NC(=O)[C@@H]1C[C@@H](O)CN1C(=O)c1cn(C)c2ccccc12` [FK888], in data set [1] (setting [6]), the Outcome entry is given as “anxiolytic”.

As for `Cc1cc(C)cc(C(=O)N2CC[C@H](NCc3ccnc4ccccc34)C[C@H]2Cc2ccccc2)c1` [CGP 49823], the Outcome entry was “inactive anti-” in data set [1] (Vassout et al Neuropeptides 26/S1:38, 1994); “anxiolytic” in data set [4] (Social interaction test, Vassout et al Neuropeptides 26/S1:38, 1994); “anxiolytic” in data set [4] (Social interaction, File Pharm Bio B 58(3):747-752, 1997); “depressant” in data set [5].

On to `COC1(C[S@@+]([O-])c2ccccc2)CCN(CCc2c[nH]c3ccc(F)cc23)CC1` [GR159897], for which the Outcome result in data set [2] (setting [8]) and in data set [3] was “anxiolytic” in each case.

In the case of `C[C@H](NC(=O)CNC(=O)C1CCCCC1)C(=O)N[C@H](Cc1c[nH]c2ccccc12)C(=O)N[C@@H](Cc1ccccc1)C(=O)N(C)C` [GR100679] (Cyclohexanecarbonyl-GA[dW]F-NMe2), in data set [2] (setting [7]), the Outcome result is given as “anxiolytic”.
